The values that follow come from US11541107B2, “Peptides and T cells for use in immunotherapeutic treatment of various cancers” (Immatics Biotechnologies GmbH, priority 2015, dated 2023).

The target of one experiment is HLA-A*02 (Homo sapiens, UniProt P04439, D140Y/D185E/D98H/E176V/E277Q/G131W/G231S/I119V/I121R/I166T/I218V/L300P/N151K/N90K/P208A/P217A/Q86G/Q94H/R138H/R169H). Nature of the experiment: MHC binding assay, UV-ligand exchange with beta2m ELISA, HLA-A*02. As to conditions: binding to HLA-A*02 ranged by peptide exchange yield (UV-ligand exchange, beta2m ELISA). The text has this:
Candidate peptides for T cell based therapies according to the present invention were further tested for their MHC binding capacity (affinity). The individual peptide-MHC complexes were produced by UV-ligand exchange, where a UV-sensitive peptide is cleaved upon UV-irradiation, and exchanged with the peptide of interest as analyzed. Only peptide candidates that can effectively bind and stabilize the peptide-receptive MHC molecules prevent dissociation of the MHC complexes. To determine the yield of the exchange reaction, an ELISA was performed based on the detection of the light chain (ß2 m) of stabilized MHC complexes. The assay was performed as generally described in Rodenko et al. (Rodenko et al., 2006).
96 well MAXISorp plates (NUNC) were coated over night with 2 ug/ml streptavidin in PBS at room temperature, washed 4× and blocked for 1 h at 37° C. in 2% BSA containing blocking buffer. […] Peptide-MHC monomers of the UV-exchange reaction were diluted 100 fold in blocking buffer. Samples were incubated for 1 h at 37° C., washed four times, incubated with 2 ug/ml HRP conjugated anti-β2 m for 1h at 37° C., washed again and detected with TMB solution that is stopped with […]. Absorption was measured at 450 nm. Candidate peptides that show a high exchange yield (preferably higher than 50%, most preferred higher than 75%) are generally preferred for a generation and production of antibodies or fragments thereof, and/or T cell receptors or fragments thereof, as they show sufficient avidity to the MHC molecules and prevent dissociation of the MHC complexes.

A further experiment relates to HLA-A*24. The experiment in a line: MHC binding assay, UV-ligand exchange with beta2m ELISA, HLA-A*24. More on the design: species or system human. As to conditions: binding to HLA-A*24 ranged by peptide exchange yield (UV-ligand exchange, beta2m ELISA). The essentials:
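Peptide–MHC complexes made by UV-ligand exchange of a UV-cleavable peptide. Exchange yield measured by ELISA: monomers diluted 100-fold on streptavidin-coated plates, 1 h at 37°C, detected with HRP anti-β2m (2 ug/ml) and TMB, absorbance at 450 nm.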

Take “38 (KMQEDLVTL; listed as Homo sapiens) [compound 38]”: the Peptide exchange entry with HLA-A*02 is “+++ (50%-75% = +++)”.

For “48 (TLDHKPVTV; listed as Homo sapiens) [compound 48]”, the Peptide exchange entry with HLA-A*02 is “++ (20%-49% = ++)”.

As to “47 (GLYQAQVNL; listed as Homo sapiens) [compound 47]”, in the experiment with HLA-A*02, the Peptide exchange entry is listed as “+++ (50%-75% = +++)”. Turning to “87 (YLTEVFLHVV; listed as Homo sapiens) [compound 87]”, the Peptide exchange result with HLA-A*02 is “+++ (50%-75% = +++)”. Same read-out and setting: the entry for “81 (VLFLGKLLV; listed as Homo sapiens) [compound 81]” is “++ (20%-49% = ++)”. Consider “70 (GLFSQHFNL; listed as Homo sapiens) [compound 70]”, for which the Peptide exchange entry with HLA-A*02 is on record as “+++ (50%-75% = +++)”. For “72 (GMIGFQVLL; listed as Homo sapiens) [compound 72]”, the Peptide exchange result in the experiment with HLA-A*02 was “+++ (50%-75% = +++)”. For the substance “89 (YLVAHNLLL; listed as Homo sapiens) [compound 89]”, the Peptide exchange result with HLA-A*02 is recorded as “+++ (50%-75% = +++)”. On the same count and under the same terms, the value for “16 (HLYNNEEQV; listed as Homo sapiens) [compound 16]” was “++ (20%-49% = ++)”; that for “79 (SLVPLQILL; listed as Homo sapiens) [compound 79]” was “++++ (>=75% = ++++)”.

Turning to “5 (SLFGQEVYC; listed as Homo sapiens) [compound 5]”, the Peptide exchange result in the experiment with HLA-A*02 was “+++ (50%-75% = +++)”. The same measure, in the same setting: the value for “93 (SLLTQPIFL; listed as Homo sapiens) [compound 93]” was “+++ (50%-75% = +++)”. Still for that read-out and setting: the value for “36 (KLYGIEIEV; listed as Homo sapiens) [compound 36]” was “++++ (>=75% = ++++)”; that for “327 (SIGDIFLKY; listed as Homo sapiens) [compound 327]” was “+++ (50%-75% = +++)”. Consider “333 (GTFLEGVAK; listed as Homo sapiens) [compound 333]”, for which, in the experiment with HLA-A*02, the Peptide exchange result is reported as “+++ (50%-75% = +++)”.

Take “328 (SVDSAPAAV; listed as Homo sapiens) [compound 328]”: in the experiment with HLA-A*02, the Peptide exchange entry is on record as “++ (20%-49% = ++)”. Still for that read-out and setting: the value for “51 (LLLDGDFTL; listed as Homo sapiens) [compound 51]” was “+++ (50%-75% = +++)”; that for “27 (KVFGDLDQV; listed as Homo sapiens) [compound 27]” was “+++ (50%-75% = +++)”; that for “49 (LLDESKLTL; listed as Homo sapiens) [compound 49]” was “+++ (50%-75% = +++)”.

“57 (VLISSTVRL; listed as Homo sapiens) [compound 57]”: in the experiment with HLA-A*02, the Peptide exchange entry was “++ (20%-49% = ++)”. With “18 (YVLNEEDLQKV; listed as Homo sapiens) [compound 18]”, in the experiment with HLA-A*02, the Peptide exchange result is “+++ (50%-75% = +++)”. Take “331 (AIWKELISL; listed as Homo sapiens) [compound 331]”: the Peptide exchange entry with HLA-A*02 is recorded as “+++ (50%-75% = +++)”. Still for that read-out and setting: the value for “41 (FVLPLVVTL; listed as Homo sapiens) [compound 41]” was “+++ (50%-75% = +++)”.

For the substance “90 (GAVAEEVLSSI; listed as Homo sapiens) [compound 90]”, the Peptide exchange result with HLA-A*02 is listed as “+ (<20% = +)”.

Turning to “88 (ILLNTEDLASL; listed as Homo sapiens) [compound 88]”, the Peptide exchange entry with HLA-A*02 is listed as “+++ (50%-75% = +++)”. With “287 (IYNPNLLTASKF; listed as Homo sapiens) [compound 287]”, the Peptide exchange entry with HLA-A*24 is recorded as “+++ (50%-75% = +++)”.

For “232 (YYLSDSPLL; listed as Homo sapiens) [compound 232]”, in the experiment with HLA-A*24, the Peptide exchange entry was “+++ (50%-75% = +++)”.

For the substance “361 (TYADIGGLDNQI; listed as Homo sapiens) [compound 361]”, the Peptide exchange entry with HLA-A*24 is “+++ (50%-75% = +++)”. Turning to “280 (TYNPNLQDKL; listed as Homo sapiens) [compound 280]”, the Peptide exchange entry with HLA-A*24 is “++++ (>=75% = ++++)”. With “248 (AFPTFSVQL; listed as Homo sapiens) [compound 248]”, the Peptide exchange entry with HLA-A*24 is on record as “++++ (>=75% = ++++)”.

For the substance “357 (QFITSTNTF; listed as Homo sapiens) [compound 357]”, in the experiment on HLA-A*24, the Peptide exchange result is “++++ (>=75% = ++++)”. For the substance “173 (QYLEKYYNL; listed as Homo sapiens) [compound 173]”, the Peptide exchange entry in the experiment with HLA-A*24 is reported as “++++ (>=75% = ++++)”. Consider “343 (NYLGGTSTI; listed as Homo sapiens) [compound 343]”, for which, in the experiment on HLA-A*24, the Peptide exchange entry is “+++ (50%-75% = +++)”. As to “179 (TYIPVGLGRLL; listed as Homo sapiens) [compound 179]”, the Peptide exchange result in the experiment with HLA-A*24 is “+++ (50%-75% = +++)”.

In the case of “345 (EYNSDLHQFF; listed as Homo sapiens) [compound 345]”, the Peptide exchange result in the experiment on HLA-A*24 is on record as “+++ (50%-75% = +++)”. On the same count and under the same terms, the value for “147 (LYLAFPLAF; listed as Homo sapiens) [compound 147]” was “+++ (50%-75% = +++)”; that for “107 (KYFPYLVVI; listed as Homo sapiens) [compound 107]” was “+++ (50%-75% = +++)”; that for “201 (GYNPNRVFF; listed as Homo sapiens) [compound 201]” was “+++ (50%-75% = +++)”. Still for that read-out and setting: the entry for “169 (NYITGKGDVF; listed as Homo sapiens) [compound 169]” is “+++ (50%-75% = +++)”; for “316 (VYFEGSDFKF; listed as Homo sapiens) [compound 316]” it is “+++ (50%-75% = +++)”. In the case of “246 (KYLSVQLTL; listed as Homo sapiens) [compound 246]”, the Peptide exchange result in the experiment on HLA-A*24 is recorded as “++ (20%-49% = ++)”. Same read-out and setting: the entry for “121 (RYGLPAAWSTF; listed as Homo sapiens) [compound 121]” is “+++ (50%-75% = +++)”. Turning to “237 (KYVGQLAVL; listed as Homo sapiens) [compound 237]”, the Peptide exchange entry with HLA-A*24 was “+++ (50%-75% = +++)”. “342 (NYAFLHRTL; listed as Homo sapiens) [compound 342]”: the Peptide exchange entry with HLA-A*24 is listed as “+++ (50%-75% = +++)”. Regarding “259 (YFIKSPPSQLF; listed as Homo sapiens) [compound 259]”, in the experiment on HLA-A*24, the Peptide exchange result is “++ (20%-49% = ++)”. On to “140 (RYLINSYDF; listed as Homo sapiens) [compound 140]”, for which the Peptide exchange result with HLA-A*24 is given as “++++ (>=75% = ++++)”. Consider “385 (QYIEELQKF; listed as Homo sapiens) [compound 385]”, for which the Peptide exchange entry in the experiment on HLA-A*24 is listed as “+++ (50%-75% = +++)”. As for “127 (QYFTGNPLF; listed as Homo sapiens) [compound 127]”, the Peptide exchange result with HLA-A*24 is recorded as “+++ (50%-75% = +++)”.

For the substance “225 (TYTNTLERL; listed as Homo sapiens) [compound 225]”, the Peptide exchange entry in the experiment on HLA-A*24 is “+++ (50%-75% = +++)”. The same measure, in the same setting: the entry for “253 (IYGFFNENF; listed as Homo sapiens) [compound 253]” is “+++ (50%-75% = +++)”; for “305 (NYENKQYLF; listed as Homo sapiens) [compound 305]” it is “++++ (>=75% = ++++)”. Still for that read-out and setting: the value for “372 (VYVIEPHSMEF; listed as Homo sapiens) [compound 372]” was “+++ (50%-75% = +++)”. For the substance “271 (RFLMKSYSF; listed as Homo sapiens) [compound 271]”, the Peptide exchange result with HLA-A*24 is “++++ (>=75% = ++++)”. The same measure, in the same setting: the entry for “370 (RFIGIPNQF; listed as Homo sapiens) [compound 370]” is “+++ (50%-75% = +++)”; for “170 (QYPFHVPLL; listed as Homo sapiens) [compound 170]” it is “++++ (>=75% = ++++)”; for “205 (VYPVVLNQI; listed as Homo sapiens) [compound 205]” it is “+++ (50%-75% = +++)”.

Turning to “227 (IYRFITERF; listed as Homo sapiens) [compound 227]”, in the experiment on HLA-A*24, the Peptide exchange entry is “+++ (50%-75% = +++)”.

As to “288 (VYPDTVALTF; listed as Homo sapiens) [compound 288]”, the Peptide exchange result with HLA-A*24 is “++ (20%-49% = ++)”. Still for that read-out and setting: the value for “295 (SYLVIHERI; listed as Homo sapiens) [compound 295]” was “+++ (50%-75% = +++)”; that for “226 (MYLKLVQLF; listed as Homo sapiens) [compound 226]” was “++ (20%-49% = ++)”.

Turning to “289 (FFHEGQYVF; listed as Homo sapiens) [compound 289]”, in the experiment with HLA-A*24, the Peptide exchange result was “++++ (>=75% = ++++)”. Still for that read-out and setting: the value for “281 (NYSPGLVSLIL; listed as Homo sapiens) [compound 281]” was “+++ (50%-75% = +++)”; that for “208 (TYLEKIDGF; listed as Homo sapiens) [compound 208]” was “++++ (>=75% = ++++)”.
